# Measured values from PMC12136031 (Science Advances, 2025).
# Read-outs that look alike come from different tables or passages of the source.
# Key:
# ADRB2 = target: T1, ADRB2 (Homo sapiens, UniProt P07550); assay: Safety47 cAMP ADRB2; assay type: cell-based; conditions: for Emax: read-out: Max Response; for EC50: read-out: RC50 (EC50); for IC50: read-out: RC50 (IC50)
# T1 construct: purchased Eurofins Panlab Safety47 Safety Scan
# ADRB1 = target: T2, ADRB1 (Homo sapiens, UniProt P08588); assay: Safety47 cAMP ADRB1; assay type: cell-based; conditions: for Emax: read-out: Max Response; for EC50: read-out: RC50 (EC50); for IC50: read-out: RC50 (IC50)
# T2 construct: purchased Eurofins Panlab Safety47 Safety Scan
# HRH1 = target: T3, HRH1 (Homo sapiens, UniProt P35367); assay: Safety47 Calcium Flux HRH1; assay type: cell-based; conditions: for Emax: read-out: Max Response; for EC50: read-out: RC50 (EC50); for IC50: read-out: RC50 (IC50)
# T3 construct: purchased Eurofins Panlab Safety47 Safety Scan
# CNR1 = target: T4, CNR1 (Homo sapiens, UniProt P21554); assay: Safety47 cAMP CNR1; assay type: cell-based; conditions: for Emax: read-out: Max Response; for EC50: read-out: RC50 (EC50); for IC50: read-out: RC50 (IC50)
# T4 construct: purchased Eurofins Panlab Safety47 Safety Scan
# ADRA2A = target: T5, ADRA2A (Homo sapiens, UniProt P08913); assay: Safety47 cAMP ADRA2A; assay type: cell-based; conditions: for Emax: read-out: Max Response; for EC50: read-out: RC50 (EC50); for IC50: read-out: RC50 (IC50)
# T5 construct: purchased Eurofins Panlab Safety47 Safety Scan
# T5 sequence (P08913 1-465): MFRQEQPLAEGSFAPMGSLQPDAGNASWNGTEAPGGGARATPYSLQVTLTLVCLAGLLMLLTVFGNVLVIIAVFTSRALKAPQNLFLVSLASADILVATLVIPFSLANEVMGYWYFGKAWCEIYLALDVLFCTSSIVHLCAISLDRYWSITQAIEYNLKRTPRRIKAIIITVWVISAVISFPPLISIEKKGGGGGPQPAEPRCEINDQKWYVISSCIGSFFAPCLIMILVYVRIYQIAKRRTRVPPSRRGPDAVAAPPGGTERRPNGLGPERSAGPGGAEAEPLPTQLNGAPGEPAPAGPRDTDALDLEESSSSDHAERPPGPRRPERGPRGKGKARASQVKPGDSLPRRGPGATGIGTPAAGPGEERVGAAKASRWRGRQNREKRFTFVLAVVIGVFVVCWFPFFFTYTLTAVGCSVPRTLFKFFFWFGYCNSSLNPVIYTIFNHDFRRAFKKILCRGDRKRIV
# PDE3A = target: T6, PDE3A (Homo sapiens, UniProt Q14432); assay: Safety47 Enzymatic PDE3A; assay type: biochemical; conditions: Inhibitor; for Emax: read-out: Max Response; for IC50: read-out: RC50 (IC50)
# T6 construct: purchased Eurofins Panlab (Safety47 Safety Scan, contract panel)
# OPRM1 = target: T7, OPRM1 (Homo sapiens, UniProt P35372); assay: Safety47 cAMP OPRM1; assay type: cell-based; conditions: for Emax: OPRM1, cAMP, read-out: Max Response; for EC50: read-out: RC50 (EC50); for IC50: read-out: RC50 (IC50)
# T7 construct: purchased Eurofins Panlab (Safety47 Safety Scan, contract panel)
# DAT = target: T8, DAT (Homo sapiens, UniProt Q01959); assay: Safety47 Transporter DAT; assay type: cell-based; conditions: Blocker; for Emax: read-out: Max Response; for IC50: read-out: RC50 (IC50)
# T8 construct: purchased Eurofins Panlab (Safety47 Safety Scan, contract panel)
# LCK = target: T9, LCK (Homo sapiens, UniProt P06239); assay: Safety47 Kinase Binding LCK; conditions: Kinases, Inhibitor; for Emax: read-out: Max Response; for IC50: read-out: RC50 (IC50)
# T9 construct: purchased Eurofins Panlab (Safety47 Safety Scan, contract panel)
# NAV1.5 = target: T10, NAV1.5 (Homo sapiens, UniProt Q14524); assay: Safety47 Ion Channel NAV1.5; assay type: cell-based; conditions: Blocker; for Emax: read-out: Max Response; for IC50: read-out: RC50 (IC50)
# T10 construct: purchased Eurofins Panlab (Safety47 Safety Scan, contract panel)
# CCKAR = target: T11, CCKAR (Homo sapiens, UniProt P32238); assay: Safety47 Calcium Flux CCKAR; assay type: cell-based; conditions: for Emax: read-out: Max Response; for EC50: read-out: RC50 (EC50); for IC50: read-out: RC50 (IC50)
# T11 construct: purchased Eurofins Panlab Safety47 Safety Scan
# T11 sequence (P32238 1-428): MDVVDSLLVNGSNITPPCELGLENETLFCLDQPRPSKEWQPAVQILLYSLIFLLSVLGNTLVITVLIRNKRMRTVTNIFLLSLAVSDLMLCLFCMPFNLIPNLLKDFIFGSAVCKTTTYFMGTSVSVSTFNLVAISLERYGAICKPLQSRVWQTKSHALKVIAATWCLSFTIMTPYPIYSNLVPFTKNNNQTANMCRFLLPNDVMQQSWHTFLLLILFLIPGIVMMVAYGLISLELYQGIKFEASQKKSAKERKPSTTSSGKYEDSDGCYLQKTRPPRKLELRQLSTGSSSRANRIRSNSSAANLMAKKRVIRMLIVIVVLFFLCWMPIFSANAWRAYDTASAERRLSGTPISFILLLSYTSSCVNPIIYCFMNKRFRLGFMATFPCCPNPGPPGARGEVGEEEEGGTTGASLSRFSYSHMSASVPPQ
# CHRM1 = target: T12, CHRM1 (Homo sapiens, UniProt P11229); assay: Safety47 Calcium Flux CHRM1; assay type: cell-based; conditions: for Emax: read-out: Max Response; for EC50: read-out: RC50 (EC50); for IC50: read-out: RC50 (IC50)
# T12 construct: purchased Eurofins Panlab Safety47 Safety Scan
# T12 sequence (P11229 1-460): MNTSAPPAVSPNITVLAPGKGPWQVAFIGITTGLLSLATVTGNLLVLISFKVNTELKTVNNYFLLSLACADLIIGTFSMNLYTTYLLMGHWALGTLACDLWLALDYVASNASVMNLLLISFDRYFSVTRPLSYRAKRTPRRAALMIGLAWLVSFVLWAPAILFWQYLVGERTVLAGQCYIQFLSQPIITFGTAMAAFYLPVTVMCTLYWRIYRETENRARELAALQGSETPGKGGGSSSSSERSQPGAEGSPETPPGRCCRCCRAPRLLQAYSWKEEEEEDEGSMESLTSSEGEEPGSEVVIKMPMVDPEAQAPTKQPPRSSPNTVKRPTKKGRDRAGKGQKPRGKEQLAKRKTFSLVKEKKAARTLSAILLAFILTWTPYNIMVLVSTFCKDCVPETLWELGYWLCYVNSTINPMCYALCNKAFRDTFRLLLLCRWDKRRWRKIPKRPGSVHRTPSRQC
# in vitro = conditions: African green monkey
# [1] = system: TFEB transcriptional targets; assay: RNA-seq of DCAF7 inhibitor-treated BEAS-2B cells; assay type: cell-based, human; conditions: 3 μM, 18 hours
# DCAF7 = DCAF7 (Homo sapiens, UniProt P61962); assay: Microscale thermophoresis (MST) of DCAF7 and BC18630; conditions: read-out: Kd (MST binding coefficient)
# lysosomal pH = assay: Lysosomal pH (lysosensor yellow/blue) in OC43-infected BEAS-2B cells; assay type: cell-based, human; conditions: OC43 7 hours, 18 hours pretreatment, 100 nM
# [2] = system: hepatic endolysosomal capacity; assay: Murine model of hepatic lysosomal activity (dextran cascade blue uptake); assay type: in vivo, C57BL/6 mice; conditions: 50 mg/kg i.p. daily for 4 days
# T9 sequence (P06239 whole entry, species assumed): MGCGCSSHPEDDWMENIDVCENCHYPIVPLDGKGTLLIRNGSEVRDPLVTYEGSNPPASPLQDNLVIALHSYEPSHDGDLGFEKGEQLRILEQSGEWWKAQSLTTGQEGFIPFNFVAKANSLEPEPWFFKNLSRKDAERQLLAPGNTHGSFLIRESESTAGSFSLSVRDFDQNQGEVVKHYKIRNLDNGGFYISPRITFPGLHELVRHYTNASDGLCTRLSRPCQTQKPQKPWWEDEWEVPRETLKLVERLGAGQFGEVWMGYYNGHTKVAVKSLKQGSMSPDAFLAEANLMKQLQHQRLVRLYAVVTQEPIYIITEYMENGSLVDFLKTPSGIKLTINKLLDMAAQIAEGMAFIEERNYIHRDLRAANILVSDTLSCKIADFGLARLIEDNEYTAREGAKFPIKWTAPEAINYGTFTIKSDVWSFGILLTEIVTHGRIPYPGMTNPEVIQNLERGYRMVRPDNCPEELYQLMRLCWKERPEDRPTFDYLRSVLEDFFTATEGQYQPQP
# T1 sequence (P07550 whole entry): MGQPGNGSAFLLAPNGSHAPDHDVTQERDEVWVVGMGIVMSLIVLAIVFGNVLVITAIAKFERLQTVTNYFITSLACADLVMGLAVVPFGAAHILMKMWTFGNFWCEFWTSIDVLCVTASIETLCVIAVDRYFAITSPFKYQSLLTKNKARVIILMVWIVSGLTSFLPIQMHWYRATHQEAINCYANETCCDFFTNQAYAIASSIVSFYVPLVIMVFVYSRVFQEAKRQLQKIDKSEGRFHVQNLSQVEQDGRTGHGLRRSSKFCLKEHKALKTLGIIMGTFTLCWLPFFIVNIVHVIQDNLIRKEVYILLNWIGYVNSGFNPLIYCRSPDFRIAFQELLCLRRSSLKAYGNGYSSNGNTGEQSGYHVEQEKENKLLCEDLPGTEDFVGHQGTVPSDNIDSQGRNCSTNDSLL
# T3 sequence (P35367 whole entry): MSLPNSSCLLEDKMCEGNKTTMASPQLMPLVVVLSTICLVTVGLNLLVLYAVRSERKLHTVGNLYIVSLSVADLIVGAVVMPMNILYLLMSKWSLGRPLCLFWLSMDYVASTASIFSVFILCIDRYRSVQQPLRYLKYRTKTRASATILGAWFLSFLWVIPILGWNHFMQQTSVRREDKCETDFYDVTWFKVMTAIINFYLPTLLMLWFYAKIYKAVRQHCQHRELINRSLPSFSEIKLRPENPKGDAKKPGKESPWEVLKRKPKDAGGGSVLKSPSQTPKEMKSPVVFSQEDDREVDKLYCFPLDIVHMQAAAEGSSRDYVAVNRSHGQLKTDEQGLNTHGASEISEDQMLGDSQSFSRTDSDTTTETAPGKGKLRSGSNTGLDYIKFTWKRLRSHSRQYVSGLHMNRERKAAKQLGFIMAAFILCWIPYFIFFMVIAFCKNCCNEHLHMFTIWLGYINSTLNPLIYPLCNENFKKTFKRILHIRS
# T7 sequence (P35372 whole entry, species assumed): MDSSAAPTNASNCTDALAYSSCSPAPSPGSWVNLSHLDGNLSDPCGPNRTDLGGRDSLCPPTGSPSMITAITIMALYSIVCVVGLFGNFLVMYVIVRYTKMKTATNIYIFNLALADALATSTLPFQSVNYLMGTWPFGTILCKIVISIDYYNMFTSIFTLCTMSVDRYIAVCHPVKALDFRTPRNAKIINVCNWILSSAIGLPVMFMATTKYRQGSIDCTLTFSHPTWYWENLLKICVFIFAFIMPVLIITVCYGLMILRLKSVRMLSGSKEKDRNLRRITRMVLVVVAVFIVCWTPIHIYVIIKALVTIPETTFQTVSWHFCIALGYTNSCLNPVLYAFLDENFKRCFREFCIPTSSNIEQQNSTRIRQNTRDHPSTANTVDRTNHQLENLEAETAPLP
# T6 sequence (Q14432 whole entry, species assumed): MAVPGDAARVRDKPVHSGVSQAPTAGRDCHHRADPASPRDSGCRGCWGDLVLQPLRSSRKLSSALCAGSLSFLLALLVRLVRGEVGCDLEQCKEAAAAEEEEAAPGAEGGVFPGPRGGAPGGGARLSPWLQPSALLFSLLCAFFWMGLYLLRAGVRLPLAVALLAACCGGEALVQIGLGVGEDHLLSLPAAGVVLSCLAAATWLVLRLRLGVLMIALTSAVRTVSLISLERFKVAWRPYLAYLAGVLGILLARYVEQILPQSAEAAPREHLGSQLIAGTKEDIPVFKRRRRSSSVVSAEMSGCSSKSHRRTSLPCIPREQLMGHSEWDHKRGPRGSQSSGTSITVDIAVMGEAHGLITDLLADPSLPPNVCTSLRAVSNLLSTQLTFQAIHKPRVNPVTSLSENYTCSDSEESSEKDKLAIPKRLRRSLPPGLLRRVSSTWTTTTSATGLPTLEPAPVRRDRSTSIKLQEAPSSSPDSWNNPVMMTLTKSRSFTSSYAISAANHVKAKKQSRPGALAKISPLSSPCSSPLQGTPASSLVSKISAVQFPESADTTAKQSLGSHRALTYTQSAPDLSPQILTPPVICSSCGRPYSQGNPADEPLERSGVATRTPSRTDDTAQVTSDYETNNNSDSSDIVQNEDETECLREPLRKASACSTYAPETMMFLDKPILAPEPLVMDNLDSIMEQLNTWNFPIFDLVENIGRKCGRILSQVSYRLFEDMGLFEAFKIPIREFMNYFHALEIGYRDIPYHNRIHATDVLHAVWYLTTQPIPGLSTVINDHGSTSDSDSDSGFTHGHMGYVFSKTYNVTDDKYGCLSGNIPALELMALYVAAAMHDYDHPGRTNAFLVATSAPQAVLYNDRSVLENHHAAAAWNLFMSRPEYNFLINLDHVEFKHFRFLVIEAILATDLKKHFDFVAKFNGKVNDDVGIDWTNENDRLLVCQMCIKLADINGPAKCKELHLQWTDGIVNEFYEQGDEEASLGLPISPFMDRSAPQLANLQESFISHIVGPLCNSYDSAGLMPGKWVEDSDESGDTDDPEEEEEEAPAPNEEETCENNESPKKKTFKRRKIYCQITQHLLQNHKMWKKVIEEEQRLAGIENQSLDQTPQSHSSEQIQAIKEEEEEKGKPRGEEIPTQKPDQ
# T4 sequence (P21554 whole entry): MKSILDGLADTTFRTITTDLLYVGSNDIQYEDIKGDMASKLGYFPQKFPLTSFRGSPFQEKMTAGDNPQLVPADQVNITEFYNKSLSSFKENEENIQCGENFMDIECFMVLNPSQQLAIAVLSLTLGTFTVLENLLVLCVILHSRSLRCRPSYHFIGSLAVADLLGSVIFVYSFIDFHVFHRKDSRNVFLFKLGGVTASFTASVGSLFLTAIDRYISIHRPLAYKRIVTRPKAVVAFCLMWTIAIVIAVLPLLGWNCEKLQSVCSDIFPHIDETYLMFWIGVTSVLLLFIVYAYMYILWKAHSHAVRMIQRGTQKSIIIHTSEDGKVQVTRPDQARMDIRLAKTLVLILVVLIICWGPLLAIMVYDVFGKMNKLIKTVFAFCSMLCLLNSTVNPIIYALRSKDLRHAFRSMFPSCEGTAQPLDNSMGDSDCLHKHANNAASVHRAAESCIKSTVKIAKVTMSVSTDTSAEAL
# T2 sequence (P08588 whole entry): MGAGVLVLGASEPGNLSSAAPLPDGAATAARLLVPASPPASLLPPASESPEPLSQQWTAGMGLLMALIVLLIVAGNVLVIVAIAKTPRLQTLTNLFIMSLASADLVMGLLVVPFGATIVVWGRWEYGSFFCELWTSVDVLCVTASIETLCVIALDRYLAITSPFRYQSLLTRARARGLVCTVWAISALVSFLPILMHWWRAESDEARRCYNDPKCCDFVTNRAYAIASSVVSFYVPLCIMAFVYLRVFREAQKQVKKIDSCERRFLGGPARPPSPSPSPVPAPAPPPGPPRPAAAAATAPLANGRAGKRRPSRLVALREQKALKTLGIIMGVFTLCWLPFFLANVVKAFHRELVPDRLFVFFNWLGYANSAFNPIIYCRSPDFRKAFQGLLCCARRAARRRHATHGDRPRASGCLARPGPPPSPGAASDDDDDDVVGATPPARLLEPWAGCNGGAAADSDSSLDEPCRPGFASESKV
# T8 sequence (Q01959 whole entry, species assumed): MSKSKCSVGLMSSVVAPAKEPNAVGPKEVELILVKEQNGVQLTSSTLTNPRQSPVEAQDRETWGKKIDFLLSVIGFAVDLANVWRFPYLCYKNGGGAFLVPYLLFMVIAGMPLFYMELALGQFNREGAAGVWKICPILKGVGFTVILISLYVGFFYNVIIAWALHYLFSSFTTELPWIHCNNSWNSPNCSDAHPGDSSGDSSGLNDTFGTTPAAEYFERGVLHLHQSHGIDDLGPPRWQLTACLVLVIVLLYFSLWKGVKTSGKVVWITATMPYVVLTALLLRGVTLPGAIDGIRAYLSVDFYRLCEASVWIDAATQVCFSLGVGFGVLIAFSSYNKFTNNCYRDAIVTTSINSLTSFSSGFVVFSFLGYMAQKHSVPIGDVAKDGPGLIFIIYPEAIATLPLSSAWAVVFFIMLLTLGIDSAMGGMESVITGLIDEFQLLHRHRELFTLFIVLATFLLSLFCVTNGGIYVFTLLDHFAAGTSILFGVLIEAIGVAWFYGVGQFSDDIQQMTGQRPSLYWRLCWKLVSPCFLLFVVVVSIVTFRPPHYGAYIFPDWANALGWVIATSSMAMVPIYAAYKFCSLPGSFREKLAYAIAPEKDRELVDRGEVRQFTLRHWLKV
# Sequence of DCAF7 (P61962 whole entry): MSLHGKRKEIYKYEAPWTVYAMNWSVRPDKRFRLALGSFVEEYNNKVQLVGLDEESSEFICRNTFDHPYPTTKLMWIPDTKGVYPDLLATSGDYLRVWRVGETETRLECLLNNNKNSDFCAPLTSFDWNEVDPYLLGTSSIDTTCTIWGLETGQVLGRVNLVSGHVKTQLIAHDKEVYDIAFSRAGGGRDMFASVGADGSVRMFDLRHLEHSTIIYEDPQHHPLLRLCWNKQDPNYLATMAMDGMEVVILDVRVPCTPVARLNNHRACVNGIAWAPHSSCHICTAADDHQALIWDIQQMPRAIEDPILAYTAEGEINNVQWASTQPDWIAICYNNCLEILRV
smiles,measurement,setting,value
"Cl.Fc1cc(Nc2nc(-c3ccncc3)nc3ncccc23)cc2cc[nH]c12 [BC18813, N-(7-fluoro-1H-indol-5-yl)-2-pyridin-4-ylpyrido[2,3-d]pyrimidin-4-amine hydrochloride]",Emax,ADRB2; Agonist,0%
same,EC50,ADRB2; Agonist,> 10 µM
same,Emax,ADRB2; Antagonist,41.9%
same,IC50,ADRB2; Antagonist,> 10 µM
same,Emax,ADRB1; Agonist,2.22%
same,EC50,ADRB1; Agonist,> 10 µM
same,Emax,ADRB1; Antagonist,42.9%
same,IC50,ADRB1; Antagonist,> 10 µM
same,Emax,HRH1; Agonist,1.49%
same,EC50,HRH1; Agonist,> 10 µM
same,Emax,HRH1; Antagonist,6.52%
same,IC50,HRH1; Antagonist,> 10 µM
same,Curve Bottom,CNR1; Agonist,0
same,Curve Top,CNR1; Agonist,100
same,Hill,CNR1; Agonist,1.07
same,Emax,CNR1; Agonist,61%
same,EC50,CNR1; Agonist,6.11 µM
same,Emax,CNR1; Antagonist,0%
same,IC50,CNR1; Antagonist,> 10 µM
same,Emax,ADRA2A; Agonist,38.8%
same,EC50,ADRA2A; Agonist,> 10 µM
same,Emax,ADRA2A; Antagonist,0%
same,IC50,ADRA2A; Antagonist,> 10 µM
same,Emax,PDE3A,28.2%
same,IC50,PDE3A,> 10 µM
same,Emax,OPRM1; Agonist,24.4%
same,Emax,OPRM1; Antagonist,53.3%
same,EC50,"OPRM1; cAMP, Agonist",> 10 µM
same,Curve Bottom,"OPRM1; cAMP, Antagonist",-9.93
same,Curve Top,"OPRM1; cAMP, Antagonist",100
same,Hill,"OPRM1; cAMP, Antagonist",1.01
same,IC50,"OPRM1; cAMP, Antagonist",7.46 µM
same,Emax,DAT,16.8%
same,IC50,DAT,> 10 µM
same,Emax,LCK,11.2%
same,IC50,LCK,> 10 µM
same,Emax,NAV1.5,8.29%
same,IC50,NAV1.5,> 10 µM
same,Emax,CCKAR; Agonist,2.97%
same,EC50,CCKAR; Agonist,> 10 µM
same,Emax,CCKAR; Antagonist,0%
same,IC50,CCKAR; Antagonist,> 10 µM
same,Emax,CHRM1; Agonist,0%
same,EC50,CHRM1; Agonist,> 10 µM
same,Emax,CHRM1; Antagonist,15.3%
same,IC50,CHRM1; Antagonist,> 10 µM
"Cl.c1ccc2c(Nc3ccc4[nH]ccc4c3)nc(-c3ccncc3)nc2c1 [BC18630, N-1H-indol-5-yl-2-pyridin-4-ylquinazolin-4-amine hydrochloride]",Emax,ADRB2; Agonist,0%
same,EC50,ADRB2; Agonist,> 10 µM
same,Emax,ADRB2; Antagonist,37.3%
same,IC50,ADRB2; Antagonist,> 10 µM
same,CC50,in vitro,> 10 µM
same,Emax,ADRB1; Agonist,0.54%
same,EC50,ADRB1; Agonist,> 10 µM
same,Emax,ADRB1; Antagonist,44.8%
same,IC50,ADRB1; Antagonist,> 10 µM
same,Emax,HRH1; Agonist,0%
same,EC50,HRH1; Agonist,> 10 µM
same,Emax,HRH1; Antagonist,0%
same,IC50,HRH1; Antagonist,> 10 µM
same,Emax,CNR1; Agonist,0.8%
same,EC50,CNR1; Agonist,> 10 µM
same,Emax,CNR1; Antagonist,26.9%
same,IC50,CNR1; Antagonist,> 10 µM
same,Emax,ADRA2A; Agonist,0%
same,EC50,ADRA2A; Agonist,> 10 µM
same,IC50,ADRA2A; Antagonist,> 10 µM
same,Transcripts previously identified as TFEB transcriptional targets,[1],notable increase
same,Emax,PDE3A,8.9%
same,IC50,PDE3A,> 10 µM
same,Kd,DCAF7,~4.38 µM
same,Emax,OPRM1; Agonist,8.65%
same,Emax,OPRM1; Antagonist,49.4%
same,EC50,"OPRM1; cAMP, Agonist",> 10 µM
same,IC50,"OPRM1; cAMP, Antagonist",> 10 µM
same,Virally induced lysosomal alkalization (lysosomal pH),lysosomal pH,inhibited this virally induced alkalization
same,Mouse hepatic endolysosomal capacity,[2],increased
same,Emax,DAT,37%
same,IC50,DAT,> 10 µM
same,Emax,LCK,49.1%
same,IC50,LCK,> 10 µM
same,Emax,NAV1.5,30%
same,IC50,NAV1.5,> 10 µM
same,Emax,CCKAR; Agonist,1.69%
same,EC50,CCKAR; Agonist,> 10 µM
same,Emax,CCKAR; Antagonist,0%
same,IC50,CCKAR; Antagonist,> 10 µM
same,Emax,CHRM1; Agonist,0%
same,EC50,CHRM1; Agonist,> 10 µM
same,Emax,CHRM1; Antagonist,7.76%
same,IC50,CHRM1; Antagonist,> 10 µM
